Experiments:
[1] = biological target: Proto-oncogene tyrosine-protein kinase Src (Homo sapiens) (UniProt P12931)
[2] = biological target: cAMP-dependent protein kinase catalytic subunit beta (Homo sapiens) (UniProt P22694)
[3] = biological target: Tyrosine-protein kinase Fer (Homo sapiens) (UniProt P16591)
[4] = biological target: Non-receptor tyrosine-protein kinase TNK1 (Homo sapiens) (UniProt Q13470)
[5] = biological target: Serine/threonine-protein kinase DCLK2 (Homo sapiens) (UniProt Q8N568)
[6] = biological target: Serine/threonine-protein kinase TAO1 (Homo sapiens) (UniProt Q7L7X3)
[7] = biological target: Ephrin type-A receptor 4 (Homo sapiens) (UniProt P54764)
[8] = biological target: Mitogen-activated protein kinase kinase kinase kinase 1 (Homo sapiens) (UniProt Q92918)
[9] = biological target: 5'-AMP-activated protein kinase catalytic subunit alpha-2 (Homo sapiens) (UniProt P54646)
[10] = biological target: Serine/threonine-protein kinase MARK2 (Homo sapiens) (UniProt Q7KZI7)
[11] = biological target: Mitogen-activated protein kinase kinase kinase 14 (Homo sapiens) (UniProt Q99558)
[12] = biological target: Histamine H1 receptor (Homo sapiens) (UniProt P35367); settings: Compound concentration 10.0 uM
[13] = test system: Receptor-type tyrosine-protein kinase FLT3 (Homo sapiens), P36888 [UNDEFINED MUTATION]
[14] = biological target: Citron Rho-interacting kinase (Homo sapiens) (UniProt O14578)
Sequence of Citron Rho-interacting kinase (Homo sapiens) (O14578 whole entry): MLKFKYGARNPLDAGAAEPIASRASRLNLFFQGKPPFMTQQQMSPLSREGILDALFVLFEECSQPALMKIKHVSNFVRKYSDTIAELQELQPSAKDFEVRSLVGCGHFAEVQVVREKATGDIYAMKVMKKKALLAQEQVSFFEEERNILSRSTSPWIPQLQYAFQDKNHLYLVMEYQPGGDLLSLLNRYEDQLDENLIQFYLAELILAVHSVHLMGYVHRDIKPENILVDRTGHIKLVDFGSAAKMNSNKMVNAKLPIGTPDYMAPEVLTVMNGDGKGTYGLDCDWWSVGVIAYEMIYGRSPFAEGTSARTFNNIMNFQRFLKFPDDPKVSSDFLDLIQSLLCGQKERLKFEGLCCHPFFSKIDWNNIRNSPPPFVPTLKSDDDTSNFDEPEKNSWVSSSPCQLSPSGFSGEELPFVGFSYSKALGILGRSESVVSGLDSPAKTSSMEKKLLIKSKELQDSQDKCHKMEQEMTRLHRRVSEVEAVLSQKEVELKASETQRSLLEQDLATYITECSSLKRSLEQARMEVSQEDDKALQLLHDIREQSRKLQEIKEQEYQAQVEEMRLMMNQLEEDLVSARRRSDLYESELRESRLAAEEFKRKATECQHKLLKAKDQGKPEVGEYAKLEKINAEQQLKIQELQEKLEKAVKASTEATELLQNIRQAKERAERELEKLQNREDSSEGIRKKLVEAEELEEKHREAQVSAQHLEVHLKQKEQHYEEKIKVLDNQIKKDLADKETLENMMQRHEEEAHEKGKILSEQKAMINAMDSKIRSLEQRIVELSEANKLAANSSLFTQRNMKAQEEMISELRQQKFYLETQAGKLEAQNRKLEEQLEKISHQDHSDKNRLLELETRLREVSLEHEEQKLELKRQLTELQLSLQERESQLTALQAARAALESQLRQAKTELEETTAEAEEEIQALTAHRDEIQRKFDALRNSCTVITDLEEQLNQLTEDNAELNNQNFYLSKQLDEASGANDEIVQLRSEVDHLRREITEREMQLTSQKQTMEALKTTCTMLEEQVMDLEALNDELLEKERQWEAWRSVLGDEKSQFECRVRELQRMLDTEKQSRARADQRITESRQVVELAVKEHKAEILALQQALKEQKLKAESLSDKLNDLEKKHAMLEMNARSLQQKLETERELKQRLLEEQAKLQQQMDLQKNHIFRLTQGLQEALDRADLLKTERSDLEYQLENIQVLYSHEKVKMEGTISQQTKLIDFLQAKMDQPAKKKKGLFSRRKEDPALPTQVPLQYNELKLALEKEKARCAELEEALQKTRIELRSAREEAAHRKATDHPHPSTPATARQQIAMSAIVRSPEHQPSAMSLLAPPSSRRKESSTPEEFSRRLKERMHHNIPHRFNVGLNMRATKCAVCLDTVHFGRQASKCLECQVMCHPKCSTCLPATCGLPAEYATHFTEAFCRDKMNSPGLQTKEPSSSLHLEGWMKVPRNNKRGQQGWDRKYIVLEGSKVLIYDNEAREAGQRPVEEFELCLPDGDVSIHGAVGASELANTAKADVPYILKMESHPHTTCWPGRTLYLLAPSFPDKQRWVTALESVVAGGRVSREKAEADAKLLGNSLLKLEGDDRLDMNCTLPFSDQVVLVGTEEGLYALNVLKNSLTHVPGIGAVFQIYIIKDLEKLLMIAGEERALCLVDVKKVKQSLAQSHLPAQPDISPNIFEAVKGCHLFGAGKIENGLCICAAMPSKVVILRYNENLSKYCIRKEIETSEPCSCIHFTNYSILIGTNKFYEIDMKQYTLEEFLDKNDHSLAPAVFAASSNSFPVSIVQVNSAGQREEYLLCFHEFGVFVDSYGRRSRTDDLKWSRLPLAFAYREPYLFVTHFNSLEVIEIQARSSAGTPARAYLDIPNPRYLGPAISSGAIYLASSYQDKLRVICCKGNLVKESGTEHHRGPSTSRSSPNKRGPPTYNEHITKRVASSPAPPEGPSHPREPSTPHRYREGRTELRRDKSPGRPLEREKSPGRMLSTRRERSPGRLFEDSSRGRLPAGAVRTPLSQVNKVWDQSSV

[15] = biological target: Alpha-1A adrenergic receptor (Homo sapiens) (UniProt P35348); settings: Compound concentration 10.0 uM
[16] = test system: Tyrosine-protein kinase ABL1 (Homo sapiens), P00519 [T315I]
[17] = biological target: Serine/threonine-protein kinase SIK2 (Homo sapiens) (UniProt Q9H0K1)
[18] = biological target: Mitogen-activated protein kinase kinase kinase 6 (Homo sapiens) (UniProt O95382)
[19] = biological target: Serine/threonine-protein kinase 38 (Homo sapiens) (UniProt Q15208)
Sequence of Serine/threonine-protein kinase 38 (Homo sapiens) (Q15208 2-465 limits assumed): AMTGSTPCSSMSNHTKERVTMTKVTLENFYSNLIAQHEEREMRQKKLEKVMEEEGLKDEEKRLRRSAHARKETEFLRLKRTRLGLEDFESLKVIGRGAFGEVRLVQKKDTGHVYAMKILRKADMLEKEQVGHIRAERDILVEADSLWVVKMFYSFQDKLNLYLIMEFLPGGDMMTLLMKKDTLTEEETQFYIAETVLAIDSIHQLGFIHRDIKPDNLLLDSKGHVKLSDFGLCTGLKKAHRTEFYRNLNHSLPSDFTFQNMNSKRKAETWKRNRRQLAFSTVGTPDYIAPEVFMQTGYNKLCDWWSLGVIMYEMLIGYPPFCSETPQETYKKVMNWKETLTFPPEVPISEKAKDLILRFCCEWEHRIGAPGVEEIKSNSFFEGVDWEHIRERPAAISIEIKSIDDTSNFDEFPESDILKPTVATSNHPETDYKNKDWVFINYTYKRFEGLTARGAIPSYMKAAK

[20] = biological target: Mitogen-activated protein kinase kinase kinase 20 (Homo sapiens) (UniProt Q9NYL2)
[21] = biological target: D(3) dopamine receptor (Homo sapiens) (UniProt P35462); settings: Compound concentration 10.0 uM
[22] = biological target: Death-associated protein kinase 2 (Homo sapiens) (UniProt Q9UIK4)
[23] = biological target: Dual specificity mitogen-activated protein kinase kinase 6 (Homo sapiens) (UniProt P52564)
[24] = biological target: Cyclin-dependent kinase 2 homolog (Plasmodium falciparum (isolate 3D7)) (UniProt P61075)
[25] = biological target: Tyrosine-protein kinase CSK (Homo sapiens) (UniProt P41240)
[26] = biological target: Phosphatidylinositol 4,5-bisphosphate 3-kinase catalytic subunit beta isoform (Homo sapiens) (UniProt P42338)
[27] = test system: Tyrosine-protein kinase ABL1 (Homo sapiens), P00519 [F317I]
[28] = biological target: Fibroblast growth factor receptor 4 (Homo sapiens) (UniProt P22455)
[29] = biological target: Ribosomal protein S6 kinase alpha-1 (Homo sapiens) (UniProt Q15418)
[30] = biological target: Bone morphogenetic protein receptor type-1B (Homo sapiens) (UniProt O00238)
[31] = biological target: Epidermal growth factor receptor (Homo sapiens) (UniProt P00533)
[32] = biological target: Serine/threonine-protein kinase WNK4 (Homo sapiens) (UniProt Q96J92)
[33] = biological target: Muscarinic acetylcholine receptor M1 (Homo sapiens) (UniProt P11229); settings: Compound concentration 10.0 uM
[34] = biological target: Alpha-2A adrenergic receptor (Homo sapiens) (UniProt P08913); settings: Compound concentration 10.0 uM
Sequence of Alpha-2A adrenergic receptor (Homo sapiens) (P08913 whole entry): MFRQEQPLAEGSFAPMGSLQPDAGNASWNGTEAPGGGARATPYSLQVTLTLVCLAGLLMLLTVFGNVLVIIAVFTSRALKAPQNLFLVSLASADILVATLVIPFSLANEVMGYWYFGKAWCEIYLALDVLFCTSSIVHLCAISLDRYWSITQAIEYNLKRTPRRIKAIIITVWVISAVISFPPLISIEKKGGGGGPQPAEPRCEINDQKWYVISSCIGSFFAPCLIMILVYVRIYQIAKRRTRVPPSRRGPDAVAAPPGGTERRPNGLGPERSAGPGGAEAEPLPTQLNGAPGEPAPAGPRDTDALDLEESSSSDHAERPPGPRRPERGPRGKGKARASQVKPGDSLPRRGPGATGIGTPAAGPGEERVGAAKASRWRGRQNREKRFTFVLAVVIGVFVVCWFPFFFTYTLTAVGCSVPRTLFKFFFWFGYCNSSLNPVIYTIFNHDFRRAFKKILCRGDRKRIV

[35] = biological target: Insulin-like growth factor 1 receptor (Homo sapiens) (UniProt P08069)
[36] = test system: Mast/stem cell growth factor receptor Kit (Homo sapiens), P10721 [V559D]
[37] = biological target: Mitogen-activated protein kinase kinase kinase 3 (Homo sapiens) (UniProt Q99759)
[38] = biological target: Ribosomal protein S6 kinase alpha-2 (Homo sapiens) (UniProt Q15349)
[39] = biological target: MAP/microtubule affinity-regulating kinase 3 (Homo sapiens) (UniProt P27448)
[40] = biological target: Mitotic checkpoint serine/threonine-protein kinase BUB1 (Homo sapiens) (UniProt O43683)
[41] = biological target: Ephrin type-A receptor 6 (Homo sapiens) (UniProt Q9UF33)
Sequence of Ephrin type-A receptor 6 (Homo sapiens) (Q9UF33 whole entry): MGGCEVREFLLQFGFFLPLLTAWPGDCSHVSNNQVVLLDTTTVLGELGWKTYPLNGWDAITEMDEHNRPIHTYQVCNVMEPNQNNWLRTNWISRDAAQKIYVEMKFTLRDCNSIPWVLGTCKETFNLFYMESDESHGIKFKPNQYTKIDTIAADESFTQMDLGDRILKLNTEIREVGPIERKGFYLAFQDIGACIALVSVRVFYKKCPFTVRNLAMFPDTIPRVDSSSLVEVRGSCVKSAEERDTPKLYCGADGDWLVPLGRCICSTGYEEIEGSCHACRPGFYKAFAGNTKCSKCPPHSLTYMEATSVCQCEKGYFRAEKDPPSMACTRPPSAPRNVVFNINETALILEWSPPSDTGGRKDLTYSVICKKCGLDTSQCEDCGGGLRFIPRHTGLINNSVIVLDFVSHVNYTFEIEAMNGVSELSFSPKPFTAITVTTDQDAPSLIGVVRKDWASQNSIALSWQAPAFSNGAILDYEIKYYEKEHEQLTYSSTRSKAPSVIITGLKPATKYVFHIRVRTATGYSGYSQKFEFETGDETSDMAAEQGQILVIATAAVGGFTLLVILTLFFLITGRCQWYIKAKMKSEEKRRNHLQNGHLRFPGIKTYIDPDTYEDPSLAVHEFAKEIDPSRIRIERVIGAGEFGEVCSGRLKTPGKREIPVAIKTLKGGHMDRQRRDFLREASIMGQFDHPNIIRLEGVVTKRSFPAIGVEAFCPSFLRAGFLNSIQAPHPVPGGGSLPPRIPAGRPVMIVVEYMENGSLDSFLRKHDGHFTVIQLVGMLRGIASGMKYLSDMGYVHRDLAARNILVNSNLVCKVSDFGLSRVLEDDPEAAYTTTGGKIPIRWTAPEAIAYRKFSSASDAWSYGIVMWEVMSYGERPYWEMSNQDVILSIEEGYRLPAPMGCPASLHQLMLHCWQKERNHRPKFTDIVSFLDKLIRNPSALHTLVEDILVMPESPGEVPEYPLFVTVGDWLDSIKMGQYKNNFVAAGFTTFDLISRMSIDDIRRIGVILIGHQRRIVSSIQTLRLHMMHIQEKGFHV

[42] = biological target: Serine/threonine-protein kinase MAK (Homo sapiens) (UniProt P20794)
[43] = biological target: Tyrosine-protein kinase Lyn (Homo sapiens) (UniProt P07948)
Sequence of Tyrosine-protein kinase Lyn (Homo sapiens) (P07948 2-512 limits assumed): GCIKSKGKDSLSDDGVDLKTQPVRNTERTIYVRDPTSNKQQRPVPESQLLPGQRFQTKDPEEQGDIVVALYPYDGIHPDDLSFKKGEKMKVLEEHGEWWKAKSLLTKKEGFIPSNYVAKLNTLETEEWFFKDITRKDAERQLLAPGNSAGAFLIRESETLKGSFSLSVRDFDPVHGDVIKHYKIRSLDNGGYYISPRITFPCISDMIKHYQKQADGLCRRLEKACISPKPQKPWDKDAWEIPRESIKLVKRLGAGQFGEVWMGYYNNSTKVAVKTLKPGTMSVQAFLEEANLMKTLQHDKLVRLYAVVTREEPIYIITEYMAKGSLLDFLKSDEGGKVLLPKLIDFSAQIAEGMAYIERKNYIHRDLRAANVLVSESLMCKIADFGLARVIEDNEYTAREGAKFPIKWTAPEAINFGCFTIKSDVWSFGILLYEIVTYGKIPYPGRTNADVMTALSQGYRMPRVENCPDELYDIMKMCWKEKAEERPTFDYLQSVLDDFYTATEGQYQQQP

[44] = biological target: TGF-beta receptor type-1 (Homo sapiens) (UniProt P36897)
Sequence of TGF-beta receptor type-1 (Homo sapiens) (P36897 whole entry): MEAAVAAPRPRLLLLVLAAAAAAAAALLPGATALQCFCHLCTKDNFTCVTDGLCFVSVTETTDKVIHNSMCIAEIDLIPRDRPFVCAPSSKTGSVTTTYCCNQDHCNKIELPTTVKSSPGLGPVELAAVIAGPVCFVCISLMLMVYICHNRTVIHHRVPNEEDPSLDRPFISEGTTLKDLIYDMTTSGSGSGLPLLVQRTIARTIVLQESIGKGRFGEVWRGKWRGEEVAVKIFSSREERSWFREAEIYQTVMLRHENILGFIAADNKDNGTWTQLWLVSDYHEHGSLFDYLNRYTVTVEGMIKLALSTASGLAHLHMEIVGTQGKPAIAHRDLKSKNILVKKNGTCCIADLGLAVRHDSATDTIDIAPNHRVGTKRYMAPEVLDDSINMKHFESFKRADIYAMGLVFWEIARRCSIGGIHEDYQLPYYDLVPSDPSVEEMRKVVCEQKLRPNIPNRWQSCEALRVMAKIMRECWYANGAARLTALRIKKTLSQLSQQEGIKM

[45] = biological target: Mitogen-activated protein kinase 11 (Homo sapiens) (UniProt Q15759)
[46] = Compound concentration 1000.0 nM
[47] = Compound concentration 100.0 nM

CN(C)c1ncnc(-c2ccc3nc(Nc4cc(CN5CCN(C(=O)CC(F)(F)F)CC5)ccn4)[nH]c3c2)c1Cl [BAY-440]
residual activity [1, 46]: 100%
residual activity [2, 46]: 76%
residual activity [3, 46]: 100%
residual activity [4, 46]: 96%
residual activity [5, 46]: 100%
residual activity [6, 46]: 77%
residual activity [7, 46]: 92%
residual activity [8, 46]: 91%
residual activity [9, 46]: 100%
residual activity [10, 46]: 68%
residual activity [11, 46]: 62%
inhibition [12]: 26.4%
residual activity [13, 46]: 86%
residual activity [14, 46]: 100%
inhibition [15]: 12.8%
residual activity [16, 46]: 51%
residual activity [17, 46]: 59%
residual activity [18, 46]: 87%
residual activity [19, 46]: 80%
residual activity [20, 46]: 65%
inhibition [21]: 30.1%
residual activity [22, 46]: 100%
residual activity [23, 46]: 92%
residual activity [24, 46]: 85%
residual activity [25, 46]: 84%
residual activity [26, 46]: 82%
residual activity [27, 46]: 28%
residual activity [28, 46]: 92%
residual activity [29, 46]: 100%
residual activity [30, 46]: 59%
residual activity [31, 46]: 100%
residual activity [32, 46]: 53%
inhibition [33]: 32.1%
inhibition [34]: 15.7%
residual activity [35, 46]: 100%
residual activity [36, 46]: 75%
residual activity [37, 46]: 50%
residual activity [38, 46]: 100%
residual activity [39, 46]: 100%
residual activity [40, 46]: 94%
residual activity [41, 46]: 100%
residual activity [42, 46]: 100%
residual activity [43, 46]: 94%
residual activity [44, 46]: 100%
residual activity [45, 46]: 97%

C[C@H](c1ccnc(Nc2nc3ccc(-c4cc(N(C)C)ncn4)cc3[nH]2)c1)N1CCN(C(=O)CC(F)(F)F)CC1 [BAY-985]
residual activity [1, 47]: 100%
residual activity [2, 47]: 100%
residual activity [3, 47]: 100%
residual activity [4, 47]: 100%
residual activity [5, 47]: 85%
residual activity [6, 47]: 100%
residual activity [7, 47]: 98%
residual activity [8, 47]: 51%
residual activity [9, 47]: 100%
residual activity [10, 47]: 100%
residual activity [11, 47]: 100%
inhibition [12]: 35%
residual activity [13, 47]: 100%
residual activity [14, 47]: 78%
inhibition [15]: 11.9%
residual activity [16, 47]: 89%
residual activity [17, 47]: 79%
residual activity [18, 47]: 100%
residual activity [19, 47]: 100%
residual activity [20, 47]: 98%
inhibition [21]: 35.5%
residual activity [22, 47]: 74%
residual activity [23, 47]: 96%
residual activity [24, 47]: 100%
residual activity [25, 47]: 100%
residual activity [26, 47]: 100%
residual activity [27, 47]: 100%
residual activity [28, 47]: 98%
residual activity [29, 47]: 100%
residual activity [30, 47]: 86%
residual activity [31, 47]: 97%
residual activity [32, 47]: 80%
inhibition [33]: 15.1%
inhibition [34]: 24.2%
residual activity [35, 47]: 98%
residual activity [36, 47]: 99%
residual activity [37, 47]: 100%
residual activity [38, 47]: 98%
residual activity [39, 47]: 100%
residual activity [40, 47]: 95%
residual activity [41, 47]: 93%
residual activity [42, 47]: 100%
residual activity [43, 47]: 97%
residual activity [44, 47]: 85%
residual activity [45, 47]: 89%

From ChEMBL document CHEMBL4507318, “Data for DCP probe BAY-985” (2021)
